Source: US8415469B2, “Compounds and methods for kinase modulation, and indications therefor” (Plexxikon Inc., priority 2005, dated 2013)
pIC50: −log10 of the molar value.

How the values were obtained:
Assay type in all cases: biochemical
[1] = target: T1, B-Raf (Homo sapiens, UniProt P15056); assay: AlphaScreen kinase assay, B-Raf; settings: read-out: IC50, activity toward kinase B-Raf
T1 construct: purchased Upstate Biotechnology

[2] = target: T2, B-Raf V600E (Homo sapiens, UniProt P15056, V600E); assay: AlphaScreen kinase assay, B-Raf V600E; settings: read-out: IC50, activity toward kinase B-Raf V600E
T2 construct: P4254. pFastBacBD-CDC37 BRAF D437-K722-X, V600E; His6 with pFastBac HT leader (TEV site) (N); made in house; host or cells: Sf9 (baculovirus; chaperone CDC37 co-expressed)
T2 sequence (P15056 with tags, fused parts or gaps V600E): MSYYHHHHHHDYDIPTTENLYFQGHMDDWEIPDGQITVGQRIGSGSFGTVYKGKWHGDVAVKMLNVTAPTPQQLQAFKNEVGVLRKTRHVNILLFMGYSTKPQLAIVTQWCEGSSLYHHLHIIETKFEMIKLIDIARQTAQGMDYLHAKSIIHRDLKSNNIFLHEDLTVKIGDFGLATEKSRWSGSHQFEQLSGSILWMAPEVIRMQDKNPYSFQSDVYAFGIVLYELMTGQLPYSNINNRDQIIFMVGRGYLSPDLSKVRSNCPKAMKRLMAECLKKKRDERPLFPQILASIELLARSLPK

[3] = target: T3, FGFR1 (Homo sapiens, UniProt P11362, C488A/C584S); assay: AlphaScreen kinase assay, FGFR1; settings: read-out: IC50, activity toward kinase FGFR
T3 construct: P1351.pET N6 BI-PTP FGFR A458-E765-X C488A, C584S; made in house; host or cells: E. coli (PTP1B co-expressed)
T3 sequence (P11362 458-765 C488A/C584S): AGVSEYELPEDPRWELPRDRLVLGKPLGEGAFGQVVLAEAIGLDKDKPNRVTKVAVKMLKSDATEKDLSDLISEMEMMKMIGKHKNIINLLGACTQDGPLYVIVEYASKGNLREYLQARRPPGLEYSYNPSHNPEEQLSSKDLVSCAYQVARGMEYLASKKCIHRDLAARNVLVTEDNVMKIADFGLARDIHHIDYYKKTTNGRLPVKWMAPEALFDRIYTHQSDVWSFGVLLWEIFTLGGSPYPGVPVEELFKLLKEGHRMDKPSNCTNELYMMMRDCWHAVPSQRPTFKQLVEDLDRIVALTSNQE

[4] = target: T4, Fms (Homo sapiens, UniProt P07333); assay: AlphaScreen kinase assay, Fms; settings: read-out: IC50, activity toward kinase Fms
T4 construct: purchased Upstate Biotechnology
T4 sequence (P07333 20-972): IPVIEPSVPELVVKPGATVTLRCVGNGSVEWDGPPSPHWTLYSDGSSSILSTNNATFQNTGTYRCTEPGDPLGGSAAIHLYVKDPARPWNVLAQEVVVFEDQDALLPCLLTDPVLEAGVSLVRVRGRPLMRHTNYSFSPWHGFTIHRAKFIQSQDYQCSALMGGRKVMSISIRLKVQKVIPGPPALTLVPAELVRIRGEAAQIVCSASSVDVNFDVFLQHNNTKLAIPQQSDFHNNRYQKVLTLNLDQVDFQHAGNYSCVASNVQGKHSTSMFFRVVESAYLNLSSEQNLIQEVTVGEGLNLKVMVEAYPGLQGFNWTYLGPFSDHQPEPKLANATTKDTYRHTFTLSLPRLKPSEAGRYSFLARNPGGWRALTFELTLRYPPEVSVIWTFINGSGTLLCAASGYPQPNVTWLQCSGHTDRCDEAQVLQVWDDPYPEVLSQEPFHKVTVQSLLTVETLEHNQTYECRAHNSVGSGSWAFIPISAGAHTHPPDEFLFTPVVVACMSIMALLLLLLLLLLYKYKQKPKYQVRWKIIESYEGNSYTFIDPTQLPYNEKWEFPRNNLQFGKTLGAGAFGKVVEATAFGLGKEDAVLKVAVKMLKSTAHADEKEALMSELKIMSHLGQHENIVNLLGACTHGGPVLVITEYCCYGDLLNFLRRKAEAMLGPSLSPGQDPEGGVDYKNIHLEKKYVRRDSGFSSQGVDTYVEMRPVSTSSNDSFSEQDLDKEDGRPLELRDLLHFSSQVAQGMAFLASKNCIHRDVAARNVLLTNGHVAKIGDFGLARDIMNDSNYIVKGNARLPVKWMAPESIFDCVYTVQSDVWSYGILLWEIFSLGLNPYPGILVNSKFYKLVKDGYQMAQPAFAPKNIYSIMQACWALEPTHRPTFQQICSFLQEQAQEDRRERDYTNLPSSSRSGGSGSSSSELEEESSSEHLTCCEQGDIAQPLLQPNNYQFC

[5] = target: T5, Kdr (Homo sapiens, UniProt P35968); assay: Z'-Lyte FRET kinase assay (Invitrogen), Kdr; settings: read-out: IC50, activity toward kinase Kdr
T5 construct: purchased Invitrogen (assay run by Invitrogen)
T5 sequence (P35968 20-1356): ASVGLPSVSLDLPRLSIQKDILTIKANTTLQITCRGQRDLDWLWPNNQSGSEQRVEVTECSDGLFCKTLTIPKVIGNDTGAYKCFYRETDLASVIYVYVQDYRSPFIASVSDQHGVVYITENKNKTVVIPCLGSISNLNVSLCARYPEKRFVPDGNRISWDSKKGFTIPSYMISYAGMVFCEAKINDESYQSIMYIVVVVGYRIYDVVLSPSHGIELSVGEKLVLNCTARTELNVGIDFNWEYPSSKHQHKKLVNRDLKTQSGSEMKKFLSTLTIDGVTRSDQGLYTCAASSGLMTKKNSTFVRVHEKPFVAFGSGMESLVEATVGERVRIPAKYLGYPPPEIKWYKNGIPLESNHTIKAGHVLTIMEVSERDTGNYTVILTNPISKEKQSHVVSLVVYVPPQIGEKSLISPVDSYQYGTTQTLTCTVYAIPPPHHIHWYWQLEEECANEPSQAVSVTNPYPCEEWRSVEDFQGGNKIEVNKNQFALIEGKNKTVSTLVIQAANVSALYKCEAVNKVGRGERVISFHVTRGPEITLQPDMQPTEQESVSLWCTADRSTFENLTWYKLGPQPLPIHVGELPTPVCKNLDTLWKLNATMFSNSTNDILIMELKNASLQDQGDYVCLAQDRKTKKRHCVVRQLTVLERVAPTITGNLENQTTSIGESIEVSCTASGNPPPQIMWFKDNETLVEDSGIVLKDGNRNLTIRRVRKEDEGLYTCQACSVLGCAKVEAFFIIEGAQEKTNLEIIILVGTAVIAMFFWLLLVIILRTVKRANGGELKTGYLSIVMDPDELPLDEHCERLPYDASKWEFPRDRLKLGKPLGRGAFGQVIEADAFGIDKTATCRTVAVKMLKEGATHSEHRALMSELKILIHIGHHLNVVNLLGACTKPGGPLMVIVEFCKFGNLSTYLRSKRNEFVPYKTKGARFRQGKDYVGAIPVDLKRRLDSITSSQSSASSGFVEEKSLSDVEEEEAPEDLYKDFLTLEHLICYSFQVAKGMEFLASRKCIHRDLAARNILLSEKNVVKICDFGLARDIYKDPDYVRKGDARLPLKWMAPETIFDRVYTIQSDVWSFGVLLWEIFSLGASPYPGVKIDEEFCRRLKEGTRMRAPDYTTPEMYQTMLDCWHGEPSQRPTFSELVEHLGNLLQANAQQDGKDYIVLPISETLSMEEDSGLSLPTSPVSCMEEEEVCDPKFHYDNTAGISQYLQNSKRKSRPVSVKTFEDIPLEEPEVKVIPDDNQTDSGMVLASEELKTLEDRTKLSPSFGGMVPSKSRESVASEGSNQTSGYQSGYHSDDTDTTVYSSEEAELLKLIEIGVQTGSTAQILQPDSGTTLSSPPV

[6] = target: T6, Kit (Homo sapiens, UniProt P10721); assay: AlphaScreen kinase assay, Kit; settings: read-out: IC50, activity toward kinase Kit
T6 construct: P1332.N6 BI PTP KIT M552-K948-X COD; His6 (N); made in house; host or cells: E. coli (PTP1B co-expressed)
T6 sequence (P10721 with tags, fused parts or gaps): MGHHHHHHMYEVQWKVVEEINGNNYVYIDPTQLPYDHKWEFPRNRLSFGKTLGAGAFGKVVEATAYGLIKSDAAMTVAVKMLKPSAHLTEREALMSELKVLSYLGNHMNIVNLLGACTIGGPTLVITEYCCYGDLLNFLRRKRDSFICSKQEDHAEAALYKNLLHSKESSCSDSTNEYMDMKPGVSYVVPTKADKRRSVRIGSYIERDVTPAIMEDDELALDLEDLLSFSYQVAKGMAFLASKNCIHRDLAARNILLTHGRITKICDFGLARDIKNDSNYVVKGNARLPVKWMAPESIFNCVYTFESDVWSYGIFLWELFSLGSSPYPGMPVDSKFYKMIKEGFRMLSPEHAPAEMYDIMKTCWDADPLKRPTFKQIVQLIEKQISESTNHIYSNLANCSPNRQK

[7] = target: T7, Ret (Homo sapiens, UniProt P07949); assay: AlphaScreen kinase assay, Ret; settings: read-out: IC50, activity toward kinase Ret
T7 construct: P1378.pET-SF BI-PTP RET H661-R1012 HIS; made in house
T7 sequence (P07949 with tags, fused parts or gaps): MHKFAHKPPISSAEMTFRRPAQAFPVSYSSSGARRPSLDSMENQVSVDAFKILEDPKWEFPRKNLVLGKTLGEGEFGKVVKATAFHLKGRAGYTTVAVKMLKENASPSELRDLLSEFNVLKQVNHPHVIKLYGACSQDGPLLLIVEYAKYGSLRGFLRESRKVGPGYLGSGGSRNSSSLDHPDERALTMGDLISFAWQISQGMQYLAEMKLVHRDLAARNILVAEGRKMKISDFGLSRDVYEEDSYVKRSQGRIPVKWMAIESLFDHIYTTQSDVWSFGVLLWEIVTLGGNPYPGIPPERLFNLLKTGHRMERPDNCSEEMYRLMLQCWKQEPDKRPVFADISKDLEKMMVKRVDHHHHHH

[8] = target: T8, Yes (Homo sapiens, UniProt P07947); assay: Z'-Lyte FRET kinase assay (Invitrogen), Yes; settings: read-out: IC50, activity toward kinase Yes
T8 construct: purchased Invitrogen (Carlsbad, Calif.), screening service
T8 sequence (P07947 whole entry): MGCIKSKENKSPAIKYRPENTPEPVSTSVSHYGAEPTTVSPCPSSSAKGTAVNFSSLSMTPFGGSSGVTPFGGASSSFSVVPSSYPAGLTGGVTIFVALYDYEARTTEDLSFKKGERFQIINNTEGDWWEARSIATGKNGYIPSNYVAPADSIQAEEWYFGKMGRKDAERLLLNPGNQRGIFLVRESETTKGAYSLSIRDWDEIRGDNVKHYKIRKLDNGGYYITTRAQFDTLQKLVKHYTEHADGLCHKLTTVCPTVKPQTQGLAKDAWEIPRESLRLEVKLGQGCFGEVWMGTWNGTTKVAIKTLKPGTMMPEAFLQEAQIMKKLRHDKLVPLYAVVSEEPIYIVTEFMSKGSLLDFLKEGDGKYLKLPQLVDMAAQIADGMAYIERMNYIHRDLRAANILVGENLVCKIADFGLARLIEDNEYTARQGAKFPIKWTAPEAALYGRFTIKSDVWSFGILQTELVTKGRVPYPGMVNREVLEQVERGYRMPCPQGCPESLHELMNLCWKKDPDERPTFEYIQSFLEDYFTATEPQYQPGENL
In short: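 10 μM ATP, 2 μM peptide, 1% DMSO final; HEPES pH 7.5 buffer with MgCl2/EGTA/BRIJ-35. Kinase rxn 1 h RT, protease development 1 h RT, stop, read donor/acceptor ratio. Compound titrated.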

Measured: pIC50

T1 sequence (P15056 whole entry): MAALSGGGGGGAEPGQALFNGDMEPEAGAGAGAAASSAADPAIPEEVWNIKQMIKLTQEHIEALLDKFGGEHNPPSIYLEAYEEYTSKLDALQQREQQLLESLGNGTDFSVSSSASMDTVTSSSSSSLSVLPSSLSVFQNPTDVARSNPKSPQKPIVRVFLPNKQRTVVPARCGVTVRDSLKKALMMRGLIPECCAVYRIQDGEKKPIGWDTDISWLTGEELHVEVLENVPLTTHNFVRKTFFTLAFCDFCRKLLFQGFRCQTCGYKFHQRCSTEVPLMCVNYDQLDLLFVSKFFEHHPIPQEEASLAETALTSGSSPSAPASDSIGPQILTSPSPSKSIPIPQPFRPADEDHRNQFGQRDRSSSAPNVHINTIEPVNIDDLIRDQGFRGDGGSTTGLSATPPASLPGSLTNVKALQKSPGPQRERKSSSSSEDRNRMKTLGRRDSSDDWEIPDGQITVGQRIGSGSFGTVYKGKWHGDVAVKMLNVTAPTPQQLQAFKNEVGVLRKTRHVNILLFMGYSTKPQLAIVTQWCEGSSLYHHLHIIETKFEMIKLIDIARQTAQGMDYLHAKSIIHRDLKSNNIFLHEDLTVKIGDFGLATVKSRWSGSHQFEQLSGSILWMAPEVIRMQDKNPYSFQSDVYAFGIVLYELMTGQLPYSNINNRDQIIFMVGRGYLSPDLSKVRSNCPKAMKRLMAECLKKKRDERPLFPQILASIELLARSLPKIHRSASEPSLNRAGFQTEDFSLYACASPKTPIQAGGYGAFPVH

CCCS(=O)(=O)Nc1ccc(F)c(C(=O)c2c[nH]c3ncc(-c4cccnc4)cc23)c1F [Compound P-0088, Propane-1-sulfonic acid [2,4-difluoro-3-(5-pyridin-3-yl-1H-pyrrolo[2,3-b]pyridine-3-carbonyl)-phenyl]-amide]
≥ 5.00: all assays above

COc1ccc(F)c(C(=O)c2c[nH]c3ncc(-c4cccnc4)cc23)c1 [Compound P-0090]
≥ 5.00: all assays above

CS(=O)(=O)c1cccc(-c2cnc3[nH]cc(C(=O)c4c(F)ccc(F)c4F)c3c2)c1 [Compound P-0102, [5-(3-Methanesulfonyl-phenyl)-1H-pyrrolo[2,3-b]pyridin-3-yl]-(2,3,6-trifluoro-phenyl)-methanone]
≥ 5.00: all assays above
